Usually EC50 stands for the concentration at which the effect is half-maximal.

Each structure is given as a SMILES string. Read-outs that look alike come from different tables or passages of the source.

In this experiment the test system is SMN2-linked luciferase-reporter gene construct. Put plainly: SMN splice reporter assay (SMN2-linked luciferase reporter, Example 10). The format is cell-based. An excerpt: Cervical carcinoma cell lines were transformed with a SMN2-linked luciferase-reporter gene construct. The reporter is designed to detect shifts in the alternative splicing of SMN2 sequences. In particular, the reporter is constructed as a fusion of the alternatively spliced sequences of the SMN2 gene and the luciferase gene. Luciferase sequences are in the correct translational reading frame only when the SMN2 sequences are spliced according to the normal SMN1 mechanism (e.g., splicing to include exon 7), which allows for translation of the stable SMN protein. Compounds were tested in the assay by administering the compound to the cell line and detecting an increase in the luciferase activity. The assay is described in greater detail in Zhang et al., Gene Ther., 8, 1532-8 (2001). Compounds were administered as described in Lunn et al, Chem. & Biol, 11, 1489-1493 (2004).
The results are reported as a fold-increase over a baseline reading of transformed cells without any test compound.

Where [1] appears, read: maximum fold increase of reporter signal, average, read-out: SMN Splice Reporter Assay (Example 10) Avg MaxFold Increase.
Where [2] appears, read: SMN2-linked luciferase reporter, average.
Where [3] appears, read: SMN2-linked luciferase reporter, average maximum fold increase, read-out: SMN Splice Reporter Assay (Example 10) Avg MaxFold Increase.

Turning to `CC(C(=O)OC(C)(C)C)c1ccc(N2Cc3ccc(NS(=O)(=O)c4ccc(Cl)cc4)cc3C2=O)cc1` (stereo not drawn) [ALB-112070], the maximal fold induction under setting [1] stood at 1.11.
The compound `CC(C(=O)O)c1ccc(N2Cc3ccc(OCC4CCC4)cc3C2=O)cc1` (stereo not drawn) [ALB-115585] displayed an EC50 under setting [2] of 0.083 µM. For the same compound, the maximal fold induction under setting [1] stood at 1.48.
Consider `CC(C(=O)O)c1ccc(N2Cc3ccc(Br)cc3C2=O)cc1` (stereo not drawn) [ALB-112352], for which it took 0.13 µM to reach a half-maximal effect under setting [2] (EC50). Further, the maximal fold induction (read-out: SMN Splice Reporter Assay (Example 10) Avg MaxFold Increase, maximum fold increase of reporter signal, average, heading: SMN Splice Reporter Assay Avg MaxFold Increase) is 1.12.
`Cc1ccc(-c2cc(N3Cc4ccccc4C3=O)ccc2C(C)C(=O)O)cc1` (stereo not drawn) [ALB-112003] gave an EC50 under setting [2] of 2.06 µM. The maximal fold induction under setting [1] came out at 1.09.
For `CC(C)c1ccc(N2Cc3ccc(NC(=O)Nc4ccccc4)cc3C2=O)cc1` [ALB-118416], under setting [3], the maximal fold induction amounted to 1.17.
As to `CC(C(=O)OC(C)(C)C)c1ccc(N2Cc3cc(N)ccc3C2=O)cc1` (stereo not drawn) [ALB-111949], the EC50 under setting [2] was 5.22 µM. Besides, under setting [1], the maximal fold induction came out at 1.29.
For the compound `CC(C(=O)OC(C)(C)C)c1ccc(N2Cc3c(Cl)cccc3C2=O)cc1` (stereo not drawn) [ALB-111760], under setting [1], the maximal fold induction was 1.07.
For `CCNC(=O)Nc1ccc2c(c1)C(=O)N(c1ccc(C(C)C)cc1)C2` [ALB-118414], under setting [2], the EC50 worked out at 3.53 µM. In addition, the maximal fold induction under setting [3] is 1.35.
For `COCC(C)(C)c1ccc(N2Cc3ccc(OC)cc3C2=O)cc1` [ALB-115706], under setting [2], a half-maximal effect (EC50) was put at 0.66 µM. Besides, the maximal fold induction under setting [1] was 1.26.
For `CC(C(=O)O)c1ccc(N2Cc3c(cccc3-c3ccc(Cl)cc3)C2=O)cc1` (stereo not drawn) [ALB-112223] the same measures were 11 µM and 1.31.
For `CC(C(=O)OC(C)(C)C)c1ccc(N2Cc3ccccc3C2=O)cc1-c1cncnc1` (stereo not drawn) [ALB-112195], the maximal fold induction under setting [1] turned out to be 1.06.
`O=C1c2cc(Br)ccc2CN1c1ccc(C2CCCC2)cc1` [ALB-116072] registered an EC50 under setting [2] of 0.068 µM. Further, under setting [3], the maximal fold induction came to 1.36.
With `CC(C(=O)OCc1ccccc1)c1ccc(N2Cc3ccccc3C2=O)cc1` (stereo not drawn) [ALB-111733], the midpoint of the response under setting [2], the EC50, lay at 0.528 µM. Besides, under setting [1], the maximal fold induction came out at 1.56.
For `CC(C(=O)O)c1ccc(N2Cc3ccc(CN4CCOCC4)cc3C2=O)cc1` (stereo not drawn) [ALB-114438], it took 1.91 µM to reach a half-maximal effect under setting [2] (EC50). Also, under setting [1], the maximal fold induction came out at 1.27.
Regarding `CC(C(=O)O)c1ccc(N2Cc3ccccc3C2=O)c(-c2cncnc2)c1` (stereo not drawn) [ALB-112231], the maximal fold induction under setting [1] came out at 1.08.
For `CCOc1ccc2c(c1)CN(c1ccc(C(C)C(=O)O)cc1)C2=O` (stereo not drawn) [ALB-113649], under setting [1], the maximal fold induction is 1.13.
Compound `Cc1cc(N2Cc3ccccc3C2=O)ccc1C(C)C(=O)OC(C)(C)C` (stereo not drawn) [ALB-112438] yielded an EC50 under setting [2] of 2.71 µM. Besides, under setting [1], the maximal fold induction worked out at 1.42.
As for `Cc1ccc(-c2cc(N3Cc4ccccc4C3=O)ccc2C(C)C(=O)OC(C)(C)C)cc1` (stereo not drawn) [ALB-112000], the maximal fold induction under setting [1] turned out to be 1.06.
With `COCC(C)c1ccc(N2Cc3cc(OC)c(OC)cc3C2=O)cc1` (stereo not drawn) [ALB-114943], the EC50 under setting [2] was 1.31 µM. Besides, the maximal fold induction under setting [1] amounted to 1.35.
`CC(C)(C)c1ccc(N2Cc3ccccc3C2=O)cc1` [ALB-114936] yielded an EC50 under setting [2] of 0.131 µM. For the same compound, the maximal fold induction under setting [1] stood at 1.41.
For `CC(CF)c1ccc(N2Cc3ccccc3C2=O)cc1` (stereo not drawn) [ALB-114090] the same measures were 0.214 µM and 1.47.
Take `COCC(C)(C)c1ccc(N2Cc3ccccc3C2=O)cc1` [ALB-115427]: under setting [1], the maximal fold induction was 1.31.
On to `COc1ccc2c(c1)C(=O)N(c1ccc(C3CCCCC3)cc1)C2` [ALB-115496], for which the EC50 under setting [2] stood at 0.556 µM. Besides, under setting [1], the maximal fold induction amounted to 1.39.
`CC(C(=O)OC(C)(C)C)c1ccc(N2Cc3cccc(Br)c3C2=O)cc1` (stereo not drawn) [ALB-112065] registered an EC50 under setting [2] of 1.34 µM. Besides, under setting [1], the maximal fold induction worked out at 1.22.
On to `COc1ccc(-c2cccc3c2C(=O)N(c2ccc(C(C)C(=O)O)cc2)C3)cc1` (stereo not drawn) [ALB-112156], for which the maximal fold induction under setting [1] came to 1.27.
Under setting [2], `CC(C)c1ccc(N2Cc3cccc(Br)c3C2=O)cc1` [ALB-115801] had an EC50 of 0.144 µM. The maximal fold induction under setting [1] worked out at 1.45.
With `CC(C(=O)O)c1ccc(N2Cc3cc(O)ccc3C2=O)cc1` (stereo not drawn) [ALB-113560], the maximal fold induction under setting [1] was found to be 1.05.
`CC(C(=O)O)c1ccc(N2Cc3cccc(OC4CCCC4)c3C2=O)cc1` (stereo not drawn) [ALB-113566]: under setting [2], the EC50 is 5.15 µM. In addition, the maximal fold induction under setting [1] worked out at 1.96.
For the compound `CC(C(=O)O)c1ccc(N2Cc3ccccc3C2=O)c(-c2cccs2)c1` (stereo not drawn) [ALB-112233], the maximal fold induction under setting [1] was determined as 1.03.
`Cc1ccc(-c2cccc3c2CN(c2ccc(C(C)C(=O)OC(C)(C)C)cc2)C3=O)cc1` (stereo not drawn) [ALB-112188]: the maximal fold induction under setting [1] was 1.08.
The compound `COCCOc1ccc2c(c1)C(=O)N(c1ccc(C(C)C(=O)O)cc1)C2` (stereo not drawn) [ALB-115071] yielded an EC50 under setting [2] of 0.824 µM. In addition, the maximal fold induction under setting [1] was found to be 1.39.
With `CCNC(=O)C(C)c1ccc(N2Cc3ccccc3C2=O)cc1` (stereo not drawn) [ALB-112073], under setting [1], the maximal fold induction came to 1.18.
For the compound `CC(C(=O)O)c1ccc(N2Cc3c(C#N)cccc3C2=O)cc1` (stereo not drawn) [ALB-112351], the maximal fold induction under setting [1] was 1.21.
`CC(C)=Cc1ccc2c(c1)C(=O)N(c1ccc(C(C)C)cc1)C2` [ALB-115807]: the EC50 under setting [2] amounted to 0.155 µM. The maximal fold induction under setting [3] stood at 1.3.
`Cc1cccc2c1CN(c1ccc(C(C)C(=O)O)cc1)C2=O` (stereo not drawn) [ALB-112555] displayed an EC50 under setting [2] of 5.9 µM. Moreover, the maximal fold induction under setting [1] was determined as 1.64.
In the case of `CCCc1ccc(N2Cc3ccccc3C2=O)cc1` [ALB-115499], a half-maximal response under setting [2] (EC50) required 0.083 µM. Moreover, the maximal fold induction under setting [1] worked out at 1.27.
Take `CC(C(=O)O)c1ccc(N2Cc3ccc(-c4cccnc4)cc3C2=O)cc1` (stereo not drawn) [ALB-112514]: the maximal fold induction under setting [1] worked out at 1.25.
For the compound `Cc1ccc2c(c1)C(=O)N(c1ccc(C3CC3)cc1)C2` [ALB-115949], the EC50 under setting [2] came to 0.006 µM. Also, the maximal fold induction under setting [3] amounted to 1.37.
As to `CC(C(=O)O)c1ccc(N2Cc3ccccc3C2=O)cc1-c1ccco1` (stereo not drawn) [ALB-112160], the maximal fold induction under setting [1] stood at 1.02.
For the compound `COc1ccc(-c2ccc3c(c2)C(=O)N(c2ccc(C(C)C(=O)OC(C)(C)C)cc2)C3)cc1` (stereo not drawn) [ALB-112450], under setting [1], the maximal fold induction was determined as 1.09.
Take `Cc1ccc2c(c1)C(=O)N(c1ccc(C3CCCC3)cc1)C2` [ALB-116073]: under setting [3], the maximal fold induction amounted to 1.08.
`CC(C(=O)O)c1ccc(N2Cc3cc(-c4cccnc4)ccc3C2=O)cc1` (stereo not drawn) [ALB-111889]: the maximal fold induction under setting [1] stood at 1.05.
As to `COCCc1ccc(N2Cc3ccc(OC)cc3C2=O)cc1` [ALB-115217], under setting [1], the maximal fold induction worked out at 1.26.
With `CC(C(=O)O)c1ccc(N2Cc3c(Br)cccc3C2=O)cc1` (stereo not drawn) [ALB-112066], the EC50 under setting [2] came out at 21.8 µM. The maximal fold induction under setting [1] was 1.12.
Regarding `COCC(C)c1ccc(N2Cc3ccccc3C2=O)cc1` (stereo not drawn) [ALB-113389], under setting [2], a half-maximal response (EC50) required 0.179 µM. Besides, under setting [1], the maximal fold induction came to 1.34.
For the compound `Cc1ccc2c(c1)C(=O)N(c1ccc(C3CCCCC3)cc1)C2` [ALB-115717], the maximal fold induction under setting [1] worked out at 1.06.
Consider `CC(C(=O)OC(C)(C)C)c1ccc(N2Cc3ccc(NS(=O)(=O)c4ccccc4)cc3C2=O)cc1` (stereo not drawn) [ALB-112072], for which, under setting [3], the maximal fold induction was 1.07.
The compound `COc1ccc2c(c1OC)C(=O)N(c1ccc(C(C)C)cc1)C2` [ALB-118036] gave an EC50 under setting [2] of 2.67 µM. Further, under setting [1], the maximal fold induction is 1.29.
Regarding `CC(C(=O)OC(C)(C)C)c1ccc(N2Cc3ccc(N(C)C(=O)c4ccc(Cl)cc4)cc3C2=O)cc1` (stereo not drawn) [ALB-112167], the maximal fold induction under setting [1] came out at 1.01.

For the origin of these results see US8110681B2, “Compounds for the treatment of spinal muscular atrophy and other uses” (The United States of America as represented by the …, priority 2006, dated 2012).
